PMC5446409 (Scientific Reports, 2017)

Tests used:
hERG (hKv11.1) = molecular target: T1, hERG (hKv11.1) (Homo sapiens, UniProt Q12809); assay: automated patch clamp of I Kr in hERG-HEK293 cells; independently verified in hERG-CHO ([…] at […]); type: cell-based
T1 construct: gene KCNH2; human KCNH2 stably expressed in HEK293 cells

[1] = molecular target: T2, hCav1.2 (L-type calcium channel, LTCC) (Homo sapiens, UniProt Q13936); assay: automated patch clamp of I Ca,L in Cav1.2-CHO cells; confirmed by conventional patch clamp with Ba2+ as charge carrier; type: cell-based
T2 construct: gene CACNA1C; hCav1.2/β2/α2δ1 channel stably expressed in CHO cells; with CACNB2 (β2) and CACNA2D1 (α2δ1) subunits
T2 sequence (Q13936 whole entry): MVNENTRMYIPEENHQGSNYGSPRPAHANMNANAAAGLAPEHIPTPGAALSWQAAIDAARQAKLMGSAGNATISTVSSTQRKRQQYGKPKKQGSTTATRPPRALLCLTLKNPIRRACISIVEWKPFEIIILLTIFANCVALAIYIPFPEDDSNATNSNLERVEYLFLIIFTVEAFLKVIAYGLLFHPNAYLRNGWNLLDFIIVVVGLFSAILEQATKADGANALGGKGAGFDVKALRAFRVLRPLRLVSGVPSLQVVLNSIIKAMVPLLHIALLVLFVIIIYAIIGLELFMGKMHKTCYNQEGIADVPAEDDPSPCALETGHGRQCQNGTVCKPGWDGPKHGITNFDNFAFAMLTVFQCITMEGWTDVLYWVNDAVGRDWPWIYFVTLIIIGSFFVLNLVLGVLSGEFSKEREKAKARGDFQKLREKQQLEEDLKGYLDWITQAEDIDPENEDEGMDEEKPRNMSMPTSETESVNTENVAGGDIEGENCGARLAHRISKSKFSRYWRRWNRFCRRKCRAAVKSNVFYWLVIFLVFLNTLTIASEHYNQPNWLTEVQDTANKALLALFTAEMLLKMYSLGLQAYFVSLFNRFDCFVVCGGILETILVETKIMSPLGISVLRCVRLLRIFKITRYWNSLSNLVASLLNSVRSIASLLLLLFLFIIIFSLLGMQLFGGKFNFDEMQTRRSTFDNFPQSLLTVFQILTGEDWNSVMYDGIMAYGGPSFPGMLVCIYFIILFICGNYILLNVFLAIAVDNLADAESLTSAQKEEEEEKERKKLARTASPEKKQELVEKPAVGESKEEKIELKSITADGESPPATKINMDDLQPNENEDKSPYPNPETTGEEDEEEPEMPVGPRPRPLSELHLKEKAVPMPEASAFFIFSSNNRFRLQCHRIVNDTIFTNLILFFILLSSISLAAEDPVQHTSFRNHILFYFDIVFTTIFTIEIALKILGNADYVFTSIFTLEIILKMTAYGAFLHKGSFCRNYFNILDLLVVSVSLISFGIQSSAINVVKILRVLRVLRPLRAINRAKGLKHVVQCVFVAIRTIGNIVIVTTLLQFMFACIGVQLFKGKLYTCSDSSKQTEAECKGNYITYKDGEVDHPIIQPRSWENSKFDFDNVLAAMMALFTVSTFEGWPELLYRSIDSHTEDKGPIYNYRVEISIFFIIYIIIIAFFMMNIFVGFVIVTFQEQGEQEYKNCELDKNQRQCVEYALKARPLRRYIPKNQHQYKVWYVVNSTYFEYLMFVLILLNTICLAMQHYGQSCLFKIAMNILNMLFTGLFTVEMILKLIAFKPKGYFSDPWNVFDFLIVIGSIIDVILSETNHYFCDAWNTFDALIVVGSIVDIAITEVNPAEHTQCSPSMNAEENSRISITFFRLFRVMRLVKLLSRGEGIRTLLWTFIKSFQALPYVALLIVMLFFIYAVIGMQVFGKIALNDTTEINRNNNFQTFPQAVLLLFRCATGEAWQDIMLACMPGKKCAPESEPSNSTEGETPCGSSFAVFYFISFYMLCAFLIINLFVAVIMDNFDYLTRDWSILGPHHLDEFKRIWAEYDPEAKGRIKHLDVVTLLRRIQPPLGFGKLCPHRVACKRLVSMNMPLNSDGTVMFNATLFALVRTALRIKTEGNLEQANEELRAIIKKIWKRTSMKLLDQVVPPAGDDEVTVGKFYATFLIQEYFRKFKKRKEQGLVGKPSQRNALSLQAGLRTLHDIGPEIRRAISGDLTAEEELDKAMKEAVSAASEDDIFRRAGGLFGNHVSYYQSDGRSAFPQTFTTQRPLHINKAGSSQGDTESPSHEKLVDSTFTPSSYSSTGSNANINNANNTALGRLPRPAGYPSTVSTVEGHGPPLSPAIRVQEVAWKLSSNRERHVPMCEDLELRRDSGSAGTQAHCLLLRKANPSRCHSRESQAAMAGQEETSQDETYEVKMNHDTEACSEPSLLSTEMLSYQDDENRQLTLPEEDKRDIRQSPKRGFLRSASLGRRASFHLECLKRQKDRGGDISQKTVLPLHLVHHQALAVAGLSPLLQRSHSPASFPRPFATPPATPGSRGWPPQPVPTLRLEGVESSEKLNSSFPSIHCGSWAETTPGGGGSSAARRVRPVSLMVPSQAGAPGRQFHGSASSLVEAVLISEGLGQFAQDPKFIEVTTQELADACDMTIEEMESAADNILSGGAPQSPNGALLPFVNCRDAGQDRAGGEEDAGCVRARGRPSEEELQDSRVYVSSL
T2 sequence (Q08289 whole entry partner): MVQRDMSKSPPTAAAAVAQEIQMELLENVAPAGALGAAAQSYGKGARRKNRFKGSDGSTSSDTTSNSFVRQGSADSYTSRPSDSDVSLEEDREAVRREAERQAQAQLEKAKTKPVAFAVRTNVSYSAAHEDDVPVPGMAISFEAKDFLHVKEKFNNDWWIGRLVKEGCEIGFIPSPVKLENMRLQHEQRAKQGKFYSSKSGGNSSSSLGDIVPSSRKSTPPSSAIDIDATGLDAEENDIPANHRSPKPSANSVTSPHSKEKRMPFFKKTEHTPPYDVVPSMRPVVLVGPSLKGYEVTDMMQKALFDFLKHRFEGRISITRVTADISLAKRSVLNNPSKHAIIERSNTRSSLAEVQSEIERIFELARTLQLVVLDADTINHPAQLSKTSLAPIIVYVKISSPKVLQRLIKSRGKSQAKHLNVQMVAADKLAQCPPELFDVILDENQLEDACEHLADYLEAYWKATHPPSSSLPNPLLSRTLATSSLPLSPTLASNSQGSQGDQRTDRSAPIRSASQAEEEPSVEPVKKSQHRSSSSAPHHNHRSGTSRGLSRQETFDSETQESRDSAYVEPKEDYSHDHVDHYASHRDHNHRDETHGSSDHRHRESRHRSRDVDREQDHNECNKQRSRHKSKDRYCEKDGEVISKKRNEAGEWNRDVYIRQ
T2 sequence (P54289 25-956 partner): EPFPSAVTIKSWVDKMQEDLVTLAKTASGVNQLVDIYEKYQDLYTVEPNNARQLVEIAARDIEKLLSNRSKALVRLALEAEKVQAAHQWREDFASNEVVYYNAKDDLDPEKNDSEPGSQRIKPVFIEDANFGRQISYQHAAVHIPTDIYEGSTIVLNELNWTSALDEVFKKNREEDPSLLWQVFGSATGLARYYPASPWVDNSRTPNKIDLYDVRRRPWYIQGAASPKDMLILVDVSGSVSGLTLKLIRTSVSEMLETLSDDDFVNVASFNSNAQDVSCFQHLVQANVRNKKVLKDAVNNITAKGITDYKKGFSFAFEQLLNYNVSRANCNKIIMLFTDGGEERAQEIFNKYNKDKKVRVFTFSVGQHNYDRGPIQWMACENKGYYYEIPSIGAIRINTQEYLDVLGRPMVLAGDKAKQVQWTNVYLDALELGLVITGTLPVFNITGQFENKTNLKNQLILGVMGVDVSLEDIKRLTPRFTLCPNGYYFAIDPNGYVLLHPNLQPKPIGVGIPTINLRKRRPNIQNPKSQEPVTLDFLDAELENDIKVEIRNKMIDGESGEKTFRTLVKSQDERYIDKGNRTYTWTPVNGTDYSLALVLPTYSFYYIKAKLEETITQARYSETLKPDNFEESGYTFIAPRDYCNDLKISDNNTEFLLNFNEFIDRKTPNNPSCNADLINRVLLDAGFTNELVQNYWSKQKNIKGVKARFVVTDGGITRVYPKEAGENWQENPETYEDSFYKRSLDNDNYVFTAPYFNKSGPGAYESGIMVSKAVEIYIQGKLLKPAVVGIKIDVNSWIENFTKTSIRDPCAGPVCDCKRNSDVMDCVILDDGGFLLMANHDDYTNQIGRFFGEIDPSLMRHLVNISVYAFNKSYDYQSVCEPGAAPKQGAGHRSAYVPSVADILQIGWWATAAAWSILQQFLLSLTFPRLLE
T2 sequence (P54289 957-1103 partner): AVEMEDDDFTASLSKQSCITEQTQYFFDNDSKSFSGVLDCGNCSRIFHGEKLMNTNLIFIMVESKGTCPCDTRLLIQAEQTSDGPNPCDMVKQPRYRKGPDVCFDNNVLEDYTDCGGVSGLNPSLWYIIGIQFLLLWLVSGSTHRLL

T1 sequence (Q12809 whole entry): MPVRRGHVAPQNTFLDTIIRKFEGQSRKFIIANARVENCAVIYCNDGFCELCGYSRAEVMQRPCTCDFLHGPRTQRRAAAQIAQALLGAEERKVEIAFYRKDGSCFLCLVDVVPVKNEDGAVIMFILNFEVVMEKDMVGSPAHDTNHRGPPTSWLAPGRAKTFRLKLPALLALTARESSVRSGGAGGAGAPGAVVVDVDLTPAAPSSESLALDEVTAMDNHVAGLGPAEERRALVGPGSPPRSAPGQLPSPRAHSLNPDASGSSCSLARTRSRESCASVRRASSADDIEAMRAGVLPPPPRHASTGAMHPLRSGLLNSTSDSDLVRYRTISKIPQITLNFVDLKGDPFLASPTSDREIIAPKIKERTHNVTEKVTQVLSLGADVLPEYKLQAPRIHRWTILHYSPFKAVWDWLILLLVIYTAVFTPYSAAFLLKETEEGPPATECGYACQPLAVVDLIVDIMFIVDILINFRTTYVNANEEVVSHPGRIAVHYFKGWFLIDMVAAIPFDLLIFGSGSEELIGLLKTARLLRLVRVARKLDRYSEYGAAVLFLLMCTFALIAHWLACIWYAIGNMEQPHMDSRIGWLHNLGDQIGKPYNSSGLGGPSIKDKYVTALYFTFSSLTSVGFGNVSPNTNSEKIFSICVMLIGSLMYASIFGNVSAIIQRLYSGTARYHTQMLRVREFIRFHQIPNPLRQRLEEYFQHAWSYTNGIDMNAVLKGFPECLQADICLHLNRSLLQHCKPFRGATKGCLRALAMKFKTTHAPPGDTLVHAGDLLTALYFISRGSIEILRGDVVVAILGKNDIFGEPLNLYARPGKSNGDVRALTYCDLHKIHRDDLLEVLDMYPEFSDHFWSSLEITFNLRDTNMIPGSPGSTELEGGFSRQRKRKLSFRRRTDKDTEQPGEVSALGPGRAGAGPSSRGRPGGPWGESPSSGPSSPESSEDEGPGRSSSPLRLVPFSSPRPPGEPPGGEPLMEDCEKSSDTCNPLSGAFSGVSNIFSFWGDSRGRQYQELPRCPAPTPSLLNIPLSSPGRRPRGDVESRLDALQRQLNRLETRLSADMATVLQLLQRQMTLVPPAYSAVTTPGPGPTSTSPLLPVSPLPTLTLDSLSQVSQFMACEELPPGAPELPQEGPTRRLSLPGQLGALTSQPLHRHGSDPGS

`C[C@]12CC[C@H](O)C[C@H]1CC[C@@H]1[C@@H]2CC[C@]2(C)[C@@H](c3ccc(=O)oc3)CC[C@]12O` [BF, bufalin] was tested, and the IC50 (hERG (hKv11.1)) was over 100 µM and the IC50 [1] was 12.5 µM.
